The source of these data is PubChem BioAssay (NCI).

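Assay format: 96-well plates, 48-hour exposure. TGI: concentration producing complete growth inhibition.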 Where a SMILES comes first, the peptide text is derived from it. The star is where a group is joined. Boc = CC(C)(C)OC(=O)*; Bn = c1ccc(C*)cc1

What all share (assay): inhibition of tumour cell growth, NCI panel, 48 h
In test [1] the test system is ACHN renal.
Test [2] concerns COLO 205 colon.
Test [3] has as its system DU-145 prostate.
The subject of test [4] is HOP-62 NSCLC.
The subject of test [5] is MDA-MB-231 breast.
Test [6] concerns MDA-MB-435.
Test [7] relates to NCI/ADR-RES ovarian.
Test [8] has as its system OVCAR-5 ovarian.
The subject of test [9] is RPMI-8226 leukemia.
Test [10] deals with SF-268 CNS.
For test [11], the system named is SF-539 CNS.
Test [12] has as its system SNB-19 CNS.
Test [13] relates to OVCAR-4 ovarian.

`O=C1C=CC(=O)c2c1ccc1c3ccccc3n(CCCCCn3c4ccccc4c4ccc5c(c43)C(=O)C=CC5=O)c21`: the TGI was 28.6 µM in test [1]; 34.9 µM in [2]; greater than 100 µM in [3]; greater than 100 µM in [4]; 46.8 µM in [5]; 46.3 µM in [6]. Further, the TGI in test [7] was greater than 64.9 µM; in test [8] it was greater than 78.1 µM; in [9], 18.8 µM; in test [10], 32.7 µM; in test [11], 33.9 µM; in test [12], greater than 100 µM.
With `COc1cc(Nc2nc3ccccc3nc2C(=O)O)cc(OC)c1OC`, the TGI in test [1], in [2], in test [3], in test [4], in test [5] and in test [6] was greater than 100 µM throughout. The TGI in test [7], in test [8], in test [9], in test [10], in [11] and in test [12] was greater than 100 µM throughout.
Turning to `CCCC(=O)OCC1OC(n2ccc(N)nc2=O)C(OC(=O)CCC)C1OC(=O)CCC` (stereo not drawn), the TGI is greater than 100 µM in test [2]; 8.55 µM in test [4]; greater than 100 µM in [7]; greater than 100 µM in test [13]; greater than 100 µM in test [8]; greater than 100 µM in test [9]. Besides, the TGI in test [10], in test [11] and in [12] was greater than 100 µM in each case.
Regarding `COC(=O)C(CC(C)C)NC(=O)C(C)NC(=O)C(Cc1ccc(OCc2ccccc2)cc1)NC(=O)C(COCc1ccccc1)NC(=O)OC(C)(C)C` (stereo not drawn) (Boc-S(Bn)Y(Bn)AL-OMe; configuration not given here), the TGI in test [1], in [2], in test [3], in test [4], in test [6] and in test [7] was greater than 100 µM in each case. Further, the TGI in test [13], in [8], in [9], in test [10], in [11] and in test [12] was greater than 100 µM throughout.
Regarding `COc1cc(C2C3C=CC=C4CC=CC(=C43)C3CCC(=O)N32)cc(OC)c1OC` (stereo not drawn), the TGI in test [1] was greater than 100 µM; in test [3], greater than 100 µM; in [4], greater than 100 µM; in [5], greater than 100 µM; in test [6], greater than 100 µM; in [7] it was 69.8 µM. Moreover, the TGI in [8], in test [9], in test [10], in test [11] and in [12] was greater than 100 µM in each case.
For the compound `C=CCCON(C(=O)OC(C)(C)C)C(C)(C)C`, the TGI in test [1], in [2], in [3], in test [4], in test [5] and in test [6] was greater than 100 µM each time. Besides, the TGI in [7], in [8], in test [9], in test [10], in [11] and in test [12] was greater than 100 µM each time.
For `c1ccc(N=C(N2CCCC2)N(CCN2CCCC2)c2ccccc2)cc1`, the TGI in test [1] is greater than 100 µM; in test [2] it was 75.4 µM; in [4], greater than 100 µM; in test [6] it was greater than 100 µM; in [7] it was greater than 100 µM; in test [13], greater than 100 µM. The TGI in test [8], in [9] and in test [12] was greater than 100 µM each time.
With `O=C1COc2cccnc2N1CCCCO`, the TGI in test [1], in [3], in [4], in test [5], in test [6] and in test [8] was greater than 100 µM each time. Also, the TGI in test [9], in test [11] and in test [12] was greater than 100 µM each time.
For the compound `N#C[C@H](c1ccccn1)c1nc2ccccc2nc1Cl`, the TGI in [1], in test [2], in test [4], in test [5], in [6] and in test [7] was greater than 100 µM in each case. Besides, the TGI in test [13], in test [8], in test [9], in test [11] and in test [12] was greater than 100 µM throughout.
For `CC1(C)C(C#N)C1C1=C(N2CCOCC2)[C@]2(C)C(OC(=O)c3ccccc3)CC[C@@H]2C1` (stereo partly drawn), the TGI in [1], in test [2], in test [4], in test [5], in test [6] and in test [7] was greater than 100 µM in each case. Further, the TGI in test [13], in test [8], in test [10], in test [11] and in test [12] was greater than 100 µM in each case.
Take `O=C1/C(=C/c2ccc(Br)s2)NC(=S)N1c1ccccc1`: the TGI in test [1], in test [2], in test [3], in [4], in test [5] and in test [6] was greater than 100 µM throughout. For the same compound, the TGI was greater than 100 µM in test [13]; greater than 100 µM in test [8]; 85.1 µM in [9]; greater than 100 µM in test [10]; greater than 100 µM in test [12].
Take `COc1ccc(/C=C2\CCNC2=O)cc1`: the TGI in test [2], in test [4], in test [7], in test [13], in test [8] and in test [9] was greater than 100 µM throughout. Moreover, the TGI in test [10], in test [11] and in [12] was greater than 100 µM each time.
